Results as given in patent publication US20200270225A1, “Chiral Diacylhydrazine Ligands for Modulating the Expression of Exogenous Genes via an Ecdysone Receptor Complex” (Intrexon Corporation, priority 2007, published 2020).
Where two headings read alike, the source gives them in different places. Blank lines part the entries; values can stand above or below the molecule they belong to.

Assays:
[1] = target: T1, [V390I/Y410E/E274V]-CfEcR (Choristoneura fumiferana, UniProt O77240); assay type: cell-based; conditions: 3T3 Cells; for RMFI (relative maximum fold induction): relative to GS-E ligand
T1 construct: assay construct b835
Outline: (§1)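 NIH3T3 cells were transiently co-transfected with GAL4-DBD fused to CfEcR DEF domains (wild-type or V390I/Y410E/E274V), VP16-AD fused to chimeric human/Locusta RXR, and a GAL4-response luciferase reporter. Ligand was given at 8 doses, 0.01–33 µM, 0.33% DMSO, luciferase read at 48 h. EC50 came from fold induction over DMSO via three-parameter logistic fit; Relative Max FI was taken versus GS™-E ligand.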

[2] = target: wild-type Choristoneura fumiferana EcR (D, E and F domains) (Choristoneura fumiferana, UniProt O77240); assay type: cell-based; conditions: WT-CtEcR, 3T3 Cells; for RMFI (relative maximum fold induction): relative to GS-E ligand
Outline: as §1

SMILES: CCC[C@@H](N(NC(=O)c1ccccc1)C(=O)c1cc(C)cc(C)c1)C(C)(C)C [Example 2, (R)-3,5-Dimethyl-benzoic acid N′-benzoyl-N-(1-tert-butyl-butyl)-hydrazide]
EC50 ([1]; R): 2.2 nM
RMFI (relative maximum fold induction) ([1]; R): 0.91
EC50 ([2]; R): ~30 nM
RMFI (relative maximum fold induction) ([2]; R): 0.74
melting point: 66 to 68 °C

SMILES: CCC[C@@H](N(NC(=O)c1ccccc1C)C(=O)c1cc(C)cc(C)c1)C(C)(C)C [Example 3, (R)-3,5-Dimethyl-benzoic acid N-(1-tert-butyl-butyl)-N′-(2-methyl-benzoyl)-hydrazide]
EC50 ([1]; R): 1.1 nM
RMFI (relative maximum fold induction) ([1]; R): 0.69
EC50 ([2]; R): 90 nM
RMFI (relative maximum fold induction) ([2]; R): 0.75
melting point: 137 to 138 °C

SMILES: CCC[C@@H](N(NC(=O)c1ccccc1F)C(=O)c1cc(C)cc(C)c1)C(C)(C)C [Example 5, (R)-3,5-Dimethyl-bcnzoic acid N-(1-tert-butyl-butyl)-N′-(2-fluoro-benzoyl)-hydrazide]
EC50 ([1]; R): ~0.8 nM
RMFI (relative maximum fold induction) ([1]; R): 1.16
EC50 ([2]; R): ~40 nM
RMFI (relative maximum fold induction) ([2]; R): 0.68
melting point: 114 to 116 °C

SMILES: CCC[C@@H](N(NC(=O)c1ccccc1Cl)C(=O)c1cc(C)cc(C)c1)C(C)(C)C [Example 6, (R)-3,5-Dimethyl-benzoic acid N-(1-tert-butyl-butyl)-N′-(2-chloro-benzoyl)-hydrazide]
EC50 ([1]; R): 0.63 nM
RMFI (relative maximum fold induction) ([1]; R): 1.01
EC50 ([2]; R): ~20 nM
RMFI (relative maximum fold induction) ([2]; R): 0.88
melting point: 138 to 140 °C

SMILES: CCC[C@@H](N(NC(=O)c1ccccc1Br)C(=O)c1cc(C)cc(C)c1)C(C)(C)C [Example 7, (R)-3,5-Dimethyl-benzoic acid N′-(2-bromo-benzoyl)-N-(1-tert-butyl-butyl)-hydrazide]
EC50 ([1]; R): 1.4 nM
RMFI (relative maximum fold induction) ([1]; R): 0.90
EC50 ([2]; R): 78.7 nM
RMFI (relative maximum fold induction) ([2]; R): 0.58
melting point: 145 to 147 °C

SMILES: CCC[C@@H](N(NC(=O)c1cccc(C)c1)C(=O)c1cc(C)cc(C)c1)C(C)(C)C [Example 8, (R)-3,5-Dimethyl-benzoic acid N-(1-tert-butyl-butyl)-N′-(3-methyl-benzoyl)-hydrazide]
EC50 ([1]; R): 1.2 nM
RMFI (relative maximum fold induction) ([1]; R): 0.92
EC50 ([2]; R): ~30 nM
RMFI (relative maximum fold induction) ([2]; R): 0.86
melting point: 158 to 159 °C

SMILES: CCC[C@@H](N(NC(=O)c1cccc(OC)c1)C(=O)c1cc(C)cc(C)c1)C(C)(C)C [Example 9, (R)-3,5-Dimethyl-benzoic acid N-(1-tert-butyl-butyl)-N′-(3-methoxy-benzoyl)-hydrazide]
EC50 ([1]; R): 1.4 nM
RMFI (relative maximum fold induction) ([1]; R): 0.70
EC50 ([2]; R): 101 nM
RMFI (relative maximum fold induction) ([2]; R): 0.81
melting point: 110 to 111 °C

SMILES: CCC[C@@H](N(NC(=O)c1cccc(Cl)c1)C(=O)c1cc(C)cc(C)c1)C(C)(C)C [Example 10, (R)-3,5-Dimethyl-benzoic acid N-(1-tert-butyl-butyl)-N′-(3-chloro-benzoyl)-hydrazide]
EC50 ([1]; R): ~3 nM
RMFI (relative maximum fold induction) ([1]; R): 0.76
EC50 ([2]; R): 94.5 nM
RMFI (relative maximum fold induction) ([2]; R): 0.87
melting point: 163 to 164 °C

SMILES: CCC[C@@H](N(NC(=O)c1ccc(C)cc1)C(=O)c1cc(C)cc(C)c1)C(C)(C)C [Example 11, (R)-3,5-Dimethyl-benzoic acid N-(1-tert-butyl-butyl)-N′-(4-methyl-benzoyl)-hydrazide]
EC50 ([1]; R): ~1 nM
RMFI (relative maximum fold induction) ([1]; R): 0.90
EC50 ([2]; R): ~20 nM
RMFI (relative maximum fold induction) ([2]; R): 0.74
melting point: 60 to 62 °C

SMILES: CCC[C@@H](N(NC(=O)c1ccc(CC)cc1)C(=O)c1cc(C)cc(C)c1)C(C)(C)C [Example 12, (R)-3,5-Dimethyl-benzoic acid N-(1-tert-butyl-butyl)-N′-(4-ethyl-benzoyl)-hydrazide]
EC50 ([1]; R): 0.56 nM
RMFI (relative maximum fold induction) ([1]; R): 0.82
EC50 ([2]; R): 23.6 nM
RMFI (relative maximum fold induction) ([2]; R): 0.78
melting point: 111 to 112 °C

SMILES: CCC[C@@H](N(NC(=O)c1ccc(OC)cc1)C(=O)c1cc(C)cc(C)c1)C(C)(C)C [Example 13, (R)-3,5-Dimethyl-benzoic acid N-(1-tert-butyl-butyl)-N′-(4-methoxy-benzoyl)-hydrazide]
EC50 ([1]; R): 1.4 nM
RMFI (relative maximum fold induction) ([1]; R): 0.68
EC50 ([2]; R): 42.3 nM
RMFI (relative maximum fold induction) ([2]; R): 0.73
melting point: 65 to 67 °C

SMILES: CCC[C@@H](N(NC(=O)c1ccc(Cl)cc1)C(=O)c1cc(C)cc(C)c1)C(C)(C)C [Example 14, (R)-3,5-Dimethyl-benzoic acid N-(1-tert-butyl-butyl)-N′-(4-chloro-benzoyl)-hydrazide]
EC50 ([1]; R): 51 nM
RMFI (relative maximum fold induction) ([1]; R): 0.74
EC50 ([2]; R): 140 nM
RMFI (relative maximum fold induction) ([2]; R): 0.74
melting point: 87 to 89 °C

SMILES: CCC[C@@H](N(NC(=O)c1c(F)cccc1F)C(=O)c1cc(C)cc(C)c1)C(C)(C)C [Example 15, (R)-3,5-Dimethyl-benzoic acid N-(1-tert-butyl-butyl)-N′-(2,6-difluoro-benzoyl)-hydrazide]
EC50 ([1]; R): 0.54 nM
RMFI (relative maximum fold induction) ([1]; R): 0.79
EC50 ([2]; R): 66.2 nM
RMFI (relative maximum fold induction) ([2]; R): 0.82
melting point: 180 to 182 °C

SMILES: CCC[C@@H](N(NC(=O)c1c(Cl)cccc1Cl)C(=O)c1cc(C)cc(C)c1)C(C)(C)C [Example 16]
EC50 ([1]; R): 51.2 nM
RMFI (relative maximum fold induction) ([1]; R): 0.83
EC50 ([2]; R): ~300 nM
RMFI (relative maximum fold induction) ([2]; R): 0.53
melting point: 185 to 187 °C

SMILES: CCC[C@@H](N(NC(=O)c1ccc(OC)c(OC)c1)C(=O)c1cc(C)cc(C)c1)C(C)(C)C [Example 17, (R)-3,5-Dimethyl-benzoic acid N-(1-tert-butyl-butyl)-N′-(3,4-dimethoxy-benzoyl)-hydrazide]
EC50 ([1]; R): ~300 nM
RMFI (relative maximum fold induction) ([1]; R): 0.53
EC50 ([2]; R): ~4000 nM
RMFI (relative maximum fold induction) ([2]; R): 0.27
melting point: 121 to 123 °C

SMILES: CCC[C@@H](N(NC(=O)c1cc(F)cc(F)c1)C(=O)c1cc(C)cc(C)c1)C(C)(C)C [Example 18, (R)-3,5-Dimethyl-benzoic acid N-(1-tert-butyl-butyl)-N′-(3,5-difluoro-benzoyl)-hydrazide]
EC50 ([1]; R): ~10 nM
RMFI (relative maximum fold induction) ([1]; R): 0.79
EC50 ([2]; R): 141 nM
RMFI (relative maximum fold induction) ([2]; R): 0.52
melting point: 192 to 194 °C

SMILES: CCC[C@@H](N(NC(=O)c1ccc2c(c1C)OCCO2)C(=O)c1cc(C)cc(C)c1)C(C)(C)C [Example 21, (R)-3,5-Dimethyl-benzoic acid N-(1-tert-butyl-butyl)-N′-(5-methyl-2,3-dihydro-benzo[1,4]dioxine-6-carbonyl)-hydrazide]
EC50 ([1]; R): ~0.04 nM
RMFI (relative maximum fold induction) ([1]; R): 1.14
EC50 ([2]; R): 0.304 nM
RMFI (relative maximum fold induction) ([2]; R): 0.87
melting point: 70 °C

SMILES: CCC[C@@H](N(NC(=O)c1ccc2c(c1CC)OCCO2)C(=O)c1cc(C)cc(C)c1)C(C)(C)C [Example 22, (R)-3,5-Dimethyl-benzoic acid N-(1-tert-butyl-butyl)-N′-(5-ethyl 2,3-dihydro-benzo[1,4]dioxine-6-carbonyl)-hydrazide]
EC50 ([1]; R): 0.064 nM
RMFI (relative maximum fold induction) ([1]; R): 0.77
EC50 ([2]; R): 0.266 nM
RMFI (relative maximum fold induction) ([2]; R): 0.78
melting point: 128 to 129 °C

SMILES: CCC[C@@H](N(NC(=O)c1cccc2ccccc12)C(=O)c1cc(C)cc(C)c1)C(C)(C)C [Example 23, (R)-3,5-Dimethyl-benzoic acid N-(1-tert-butyl-butyl)-N′-(naphthalene-1-carbonyl)-hydrazide]
EC50 ([1]; R): ~10 nM
RMFI (relative maximum fold induction) ([1]; R): 0.73
EC50 ([2]; R): 111 nM
RMFI (relative maximum fold induction) ([2]; R): 0.69
melting point: 173 to 174 °C

melting point: 98 °C
SMILES: CCC[C@@H](N(NC(=O)[C@@H](C)c1ccc2cc(OC)ccc2c1)C(=O)c1cc(C)cc(C)c1)C(C)(C)C [Example 30, (R)-3,5-Dimethyl-benzoic Acid N-(1-tert-butyl-butyl)-N′—(S)-[2-(6-methoxy-naphthalen-2-yl)-propionyl]-hydrazide]

SMILES: C=CC[C@@H](CCc1ccccc1)N(NC(=O)c1ccc(CC)cc1)C(=O)c1cc(C)cc(C)c1 [Example 62, (R)-3,5-Dimethyl-benzoic Acid N′-(4-ethyl-benzoyl)-N-(1-phenethyl-but-3-enyl)-hydrazide]
EC50 ([1]; R): 1990 nM
RMFI (relative maximum fold induction) ([1]; R): 0.54
EC50 ([2]; R): 3090 nM
RMFI (relative maximum fold induction) ([2]; R): 0.14

SMILES: Cc1cc(C)cc(C(=O)N(NC(=O)OCc2ccccc2)[C@@H](CCCO)C(C)(C)C)c1 [Example 63, (S)—N′-(1-tert-Butyl-4-hydroxy-butyl)-N′-(3,5-dimethyl-benzoyl)-hydrazine Carboxylic Acid Benzyl Ester]
EC50 ([1]; S): > 10000 nM
EC50 ([2]; S): > 10000 nM

SMILES: Cc1cc(C)cc(C(=O)N(NC(=O)OCc2ccccc2)[C@H](CCCO)C(C)(C)C)c1 [Example 64, (R)—N′-(1-tert-Butyl-4-hydroxy-butyl)-N′-(3,5-dimethyl-benzoyl)-hydrazine carboxylic Acid benzyl ester]
EC50 ([1]; R): ~8000 nM
RMFI (relative maximum fold induction) ([1]; R): 0.33
EC50 ([2]; R): > 33000 nM
RMFI (relative maximum fold induction) ([2]; R): 0.02
